According to ChEMBL document CHEMBL1681710, “Pyridyl amides as potent inhibitors of T-type calcium channels” (Bioorg Med Chem Lett, 2011):
pIC50, pKi: −log10 of the molar value. Calls of active or inactive are those of the source. The calls are words filed in the database; no cut-off is given here.

Experiments:
[1] = target: Voltage-gated inwardly rectifying potassium channel KCNH2 (Homo sapiens, UniProt Q12809); assay: Inhibition of human ERG
[2] = Binding affinity to L-type Ca2+ channel
[3] = target: T1, Voltage-dependent T-type calcium channel subunit alpha-1I (Homo sapiens, UniProt Q9P0X4); assay: Antagonist activity at Cav3.3 alpha1i expressed in HEK293 cells by depolarized FLIPR assay; type: functional, cell-based
[4] = target: T1, Voltage-dependent T-type calcium channel subunit alpha-1I; assay: Binding affinity to Cav3.3 alpha1i
Rattus norvegicus [5] = assay: Antiepileptic activity in WAG/Rij rat seizure model assessed as reduction in total seizure time measured for 4 hrs at 10 mg/kg, po by radiotelemetric physiologic monitor; type: functional
[6] = Plasma clearance in dog at 0.5 mg/kg, iv; type: ADME, organism-based, Canis lupus familiaris; design: dose 0.5 mg/kg, route intravenous
[7] = target: T1, Voltage-dependent T-type calcium channel subunit alpha-1I; assay: Antagonist activity at Cav3.3 alpha1i expressed in HEK293 cells at -100 mV by standard voltage-clamp electrophysiology assay; type: functional, cell-based
Mus musculus = species: Mus musculus; assay: Inhibition of high-fat diet-induced weight gain in mouse; type: functional, organism-based
[8] = Half life in rat at 2 mg/kg, iv; details: in vivo
[9] = target: Voltage-dependent T-type calcium channel subunit alpha-1G (Homo sapiens, UniProt O43497); assay: Inhibition of Cav3.1 alpha1G at -80 mV holding potential by tandard voltage-clamp electrophysiology assay
[10] = Plasma clearance in rat at 2 mg/kg, iv
[11] = target: Voltage-dependent R-type calcium channel subunit alpha-1E (Homo sapiens, UniProt Q15878); assay: Inhibition of R-type Cav2.3 at -80 mV holding potential by tandard voltage-clamp electrophysiology assay
Rattus norvegicus [12] = assay: Effect on sleep architecture in rat assessed as reduction in active awake at 3 mg/kg, po up to 4 hrs; type: functional, organism-based; design: dose 3 mg/kg
[13] = Volume of distribution at steady state in dog at 0.5 mg/kg, iv; type: ADME, organism-based, Canis lupus familiaris; design: dose 0.5 mg/kg, route intravenous; details: in vivo
[14] = Bioavailability in dog at 0.5 mg/kg, iv; type: ADME, organism-based, Canis lupus familiaris; details: in vivo
[15] = target: Voltage-dependent N-type calcium channel subunit alpha-1B (Homo sapiens, UniProt Q00975); assay: Inhibition of N-type Cav2.2 at -80 mV holding potential by tandard voltage-clamp electrophysiology assay
Rattus norvegicus [16] = assay: Effect on sleep architecture in rat assessed as reduction in REM sleep at 3 mg/kg, po up to 4 hrs; type: functional, organism-based; design: dose 3 mg/kg
[17] = Volume of distribution at steady state in rat at 2 mg/kg, iv; details: in vivo
[18] = Plasma clearance in rhesus monkey at 0.5 mg/kg, iv; type: ADME, organism-based, Macaca mulatta; design: dose 0.5 mg/kg, route intravenous
[19] = Half life in rhesus monkey at 0.5 mg/kg, iv; type: ADME, organism-based, Macaca mulatta; design: dose 0.5 mg/kg, route intravenous; details: in vivo
Rattus norvegicus [20] = assay: Effect on sleep architecture in rat assessed as increase in delta sleep at 3 mg/kg, po up to 4 hrs; type: functional, organism-based; design: dose 3 mg/kg
[21] = Cmax in non-implanted rat plasma after 1.2 hrs; type: ADME, organism-based
[22] = target: Voltage-dependent T-type calcium channel subunit alpha-1H (Homo sapiens, UniProt O95180); assay: Inhibition of Cav3.2 alpha1H at -80 mV holding potential by tandard voltage-clamp electrophysiology assay
[23] = Volume of distribution at steady state in rhesus monkey at 0.5 mg/kg, iv; type: ADME, organism-based, Macaca mulatta; design: dose 0.5 mg/kg, route intravenous; details: in vivo
[24] = target: Voltage-dependent L-type calcium channel subunit alpha-1C (Homo sapiens, UniProt Q13936); assay: Inhibition of L-type Cav1.2 at -80 mV holding potential by tandard voltage-clamp electrophysiology assay
[25] = Bioavailability in rat at 2 mg/kg, iv and 10 mg/kg, po; details: in vivo
Rattus norvegicus [26] = assay: Effect on sleep architecture in po dosed rat assessed as reduction in active awake up to 4 hrs; type: functional, organism-based
[27] = Half life in dog at 0.5 mg/kg, iv; type: ADME, organism-based, Canis lupus familiaris; design: dose 0.5 mg/kg, route intravenous; details: in vivo
[28] = target: Voltage-dependent P/Q-type calcium channel subunit alpha-1A (Homo sapiens, UniProt O00555); assay: Inhibition of P/Q-type Cav2.1 at -80 mV holding potential by tandard voltage-clamp electrophysiology assay
[29] = Bioavailability in rhesus monkey at 0.5 mg/kg, iv; type: ADME, organism-based, Macaca mulatta; details: in vivo

T1 sequence (Q9P0X4 whole entry): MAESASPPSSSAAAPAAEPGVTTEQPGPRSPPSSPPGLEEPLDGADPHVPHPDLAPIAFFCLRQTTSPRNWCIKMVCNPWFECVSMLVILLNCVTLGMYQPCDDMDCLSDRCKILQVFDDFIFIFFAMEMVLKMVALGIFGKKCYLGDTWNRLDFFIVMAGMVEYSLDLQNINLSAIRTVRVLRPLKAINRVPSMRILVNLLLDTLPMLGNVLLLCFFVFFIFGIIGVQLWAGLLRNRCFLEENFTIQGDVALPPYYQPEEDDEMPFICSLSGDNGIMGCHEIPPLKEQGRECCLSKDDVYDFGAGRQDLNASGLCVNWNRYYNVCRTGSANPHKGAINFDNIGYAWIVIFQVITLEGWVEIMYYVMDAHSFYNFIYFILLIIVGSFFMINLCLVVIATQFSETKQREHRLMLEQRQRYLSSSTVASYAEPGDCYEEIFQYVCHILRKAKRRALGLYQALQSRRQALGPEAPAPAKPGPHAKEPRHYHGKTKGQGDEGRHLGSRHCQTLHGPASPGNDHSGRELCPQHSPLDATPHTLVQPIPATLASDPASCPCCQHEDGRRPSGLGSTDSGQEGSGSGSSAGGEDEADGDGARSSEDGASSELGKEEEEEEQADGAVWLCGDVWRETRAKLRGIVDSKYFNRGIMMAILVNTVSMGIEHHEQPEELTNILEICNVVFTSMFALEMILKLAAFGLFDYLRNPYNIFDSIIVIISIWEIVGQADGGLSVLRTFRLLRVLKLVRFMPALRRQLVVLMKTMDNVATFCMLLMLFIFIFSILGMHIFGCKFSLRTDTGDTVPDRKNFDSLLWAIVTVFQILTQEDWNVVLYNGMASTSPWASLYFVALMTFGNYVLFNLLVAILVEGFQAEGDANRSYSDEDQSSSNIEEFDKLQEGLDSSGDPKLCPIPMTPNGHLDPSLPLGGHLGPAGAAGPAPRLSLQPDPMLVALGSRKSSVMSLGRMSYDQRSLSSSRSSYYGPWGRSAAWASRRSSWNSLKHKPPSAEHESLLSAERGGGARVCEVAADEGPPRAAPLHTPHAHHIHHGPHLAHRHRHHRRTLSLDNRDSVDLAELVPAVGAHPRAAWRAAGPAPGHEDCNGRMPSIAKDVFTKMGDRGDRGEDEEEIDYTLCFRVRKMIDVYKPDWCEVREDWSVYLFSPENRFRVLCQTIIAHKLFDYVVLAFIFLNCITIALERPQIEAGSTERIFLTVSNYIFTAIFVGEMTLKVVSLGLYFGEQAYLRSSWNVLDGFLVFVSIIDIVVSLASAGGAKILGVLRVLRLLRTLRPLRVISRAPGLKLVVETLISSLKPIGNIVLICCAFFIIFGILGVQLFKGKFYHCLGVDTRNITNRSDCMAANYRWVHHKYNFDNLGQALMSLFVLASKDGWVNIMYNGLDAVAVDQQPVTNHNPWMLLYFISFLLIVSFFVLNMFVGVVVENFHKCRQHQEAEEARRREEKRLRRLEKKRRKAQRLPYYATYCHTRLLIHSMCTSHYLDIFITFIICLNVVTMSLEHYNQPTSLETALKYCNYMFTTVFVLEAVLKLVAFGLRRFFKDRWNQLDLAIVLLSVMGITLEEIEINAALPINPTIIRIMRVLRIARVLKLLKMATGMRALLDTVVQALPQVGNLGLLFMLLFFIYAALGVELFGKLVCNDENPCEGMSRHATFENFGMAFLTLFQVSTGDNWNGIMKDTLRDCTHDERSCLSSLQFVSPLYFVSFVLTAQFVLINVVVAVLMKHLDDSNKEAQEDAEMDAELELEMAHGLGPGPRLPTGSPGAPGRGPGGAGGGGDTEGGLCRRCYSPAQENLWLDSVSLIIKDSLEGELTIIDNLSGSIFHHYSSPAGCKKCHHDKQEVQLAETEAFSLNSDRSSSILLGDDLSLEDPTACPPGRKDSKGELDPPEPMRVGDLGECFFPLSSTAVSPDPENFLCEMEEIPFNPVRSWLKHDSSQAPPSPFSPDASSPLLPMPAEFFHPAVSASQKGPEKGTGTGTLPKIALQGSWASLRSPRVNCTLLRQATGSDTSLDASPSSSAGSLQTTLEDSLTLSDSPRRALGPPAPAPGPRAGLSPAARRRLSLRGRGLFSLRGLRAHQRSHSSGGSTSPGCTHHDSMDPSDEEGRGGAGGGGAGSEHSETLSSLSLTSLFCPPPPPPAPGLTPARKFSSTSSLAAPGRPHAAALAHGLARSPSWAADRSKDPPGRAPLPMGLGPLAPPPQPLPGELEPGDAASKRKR
Voltage-gated inwardly rectifying potassium channel KCNH2, sequence (Q12809 whole entry): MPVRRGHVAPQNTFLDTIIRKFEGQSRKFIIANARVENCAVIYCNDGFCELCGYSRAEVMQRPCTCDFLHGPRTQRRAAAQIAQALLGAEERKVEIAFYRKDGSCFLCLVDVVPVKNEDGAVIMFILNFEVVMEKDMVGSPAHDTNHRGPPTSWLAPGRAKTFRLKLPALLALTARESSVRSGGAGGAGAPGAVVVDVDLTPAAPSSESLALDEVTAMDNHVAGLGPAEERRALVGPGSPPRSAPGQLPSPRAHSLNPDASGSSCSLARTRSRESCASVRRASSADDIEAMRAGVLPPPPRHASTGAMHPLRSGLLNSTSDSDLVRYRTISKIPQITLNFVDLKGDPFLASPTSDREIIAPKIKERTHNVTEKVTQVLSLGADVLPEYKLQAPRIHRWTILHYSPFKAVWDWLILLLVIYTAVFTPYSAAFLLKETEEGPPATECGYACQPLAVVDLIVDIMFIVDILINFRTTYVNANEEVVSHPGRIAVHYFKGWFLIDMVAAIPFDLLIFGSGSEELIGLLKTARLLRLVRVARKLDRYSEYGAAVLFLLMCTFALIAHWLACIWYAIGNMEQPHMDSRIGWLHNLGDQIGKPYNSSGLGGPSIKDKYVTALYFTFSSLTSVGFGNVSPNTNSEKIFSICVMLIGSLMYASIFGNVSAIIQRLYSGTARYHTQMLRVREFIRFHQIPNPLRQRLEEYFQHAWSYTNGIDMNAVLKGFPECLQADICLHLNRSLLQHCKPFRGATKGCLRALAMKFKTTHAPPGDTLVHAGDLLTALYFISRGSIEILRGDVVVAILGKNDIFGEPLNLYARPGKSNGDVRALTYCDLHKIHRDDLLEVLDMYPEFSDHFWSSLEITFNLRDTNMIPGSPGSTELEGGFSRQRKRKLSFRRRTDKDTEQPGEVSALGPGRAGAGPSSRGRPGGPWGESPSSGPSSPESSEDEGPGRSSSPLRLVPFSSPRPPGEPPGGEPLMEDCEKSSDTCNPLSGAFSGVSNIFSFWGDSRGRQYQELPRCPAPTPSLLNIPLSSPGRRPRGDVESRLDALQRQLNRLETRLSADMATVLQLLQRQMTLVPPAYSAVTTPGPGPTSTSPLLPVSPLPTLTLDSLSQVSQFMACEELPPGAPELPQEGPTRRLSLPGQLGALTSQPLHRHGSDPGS

## COc1ccc([C@@H](C)NC(=O)Cc2ccc(C(C)(C)C)cc2)nc1
[1]
  pIC50: < 5.00
[2]
  pIC50: < 5.00
[3]
  IP: 22 nM
[4]
  pKi: 8.30
Rattus norvegicus [5]
  inhibition in vivo at 10 mg/kg: 49%

## C[C@@H](NC(=O)Cc1ccc(C(C)(C)C)cc1)c1ccc(Cl)cn1
[3]
  IP: 30 nM

## C[C@@H](NC(=O)Cc1ccc(C(C)(C)C)cc1)c1ccc(Cl)cc1
[3]
  IP: 123 nM

## COc1ccc([C@@H](C)NC(=O)Cc2ccccc2Cl)nc1
[3]
  IP: > 5000 nM

## CC(NC(=O)Cc1ccc(C(C)(C)C)cc1)c1ccccn1 (racemic)
[3]
  IP: 427 nM

## CC(C)c1ccc(CC(=O)N[C@H](C)c2ccc(O)cn2)cc1
[3]
  IP: 920 nM

## CCCOc1ccc([C@@H](C)NC(=O)Cc2ccc(C(C)C)cc2)nc1
[3]
  IP: 10 nM

## C[C@H](c1ccccc1)N(C)C(=O)Cc1ccc(C(C)(C)C)cc1
[3]
  IP: > 10000 nM

## COc1ccc([C@@H](C)NC(=O)Cc2ccc(C(C)(C)C)cc2)cc1
[3]
  IP: 146 nM

## COC(=O)c1ccc(CC(=O)N[C@H](C)c2ccc(OC)cn2)cc1
[3]
  IP: 1450 nM

## COc1ccc(CC(=O)N[C@H](C)c2ccc(OC)cn2)cc1
[3]
  IP: 1740 nM

## C[C@@H](NC(=O)Cc1ccc(C(C)(C)C)cc1)c1ccccc1
[3]
  IP: 235 nM

## COc1ccc([C@@H](C)NC(=O)Cc2ccc(S(C)(=O)=O)cc2)nc1
[3]
  IP: > 10000 nM

## C[C@H](NC(=O)Cc1ccc(C(C)(C)C)cc1)c1ccccc1
[3]
  IP: 4680 nM

## COc1ccc([C@@H](C)NC(=O)Cc2ccc(Cl)cc2)nc1
[3]
  IP: 1330 nM

## COc1ccc([C@@H](C)NC(=O)Cc2ccc(F)cc2)nc1
[3]
  IP: > 10000 nM

## C[C@@H](NC(=O)Cc1ccc(C2CC2)cc1)c1ccc(OCc2ccccc2)cn1
[3]
  IP: 21 nM

## CC(NC(=O)Cc1ccc(C(C)(C)C)cc1)c1cccnc1 (racemic)
[3]
  IP: 5380 nM

## COc1ccc([C@@H](C)NC(=O)Cc2ccc(C3CC3)cc2)nc1
[3]
  IP: 70 nM

## COc1cccc([C@@H](C)NC(=O)Cc2ccc(C(C)(C)C)cc2)c1
[3]
  IP: 146 nM

## CCCOc1ccc([C@@H](C)NC(=O)Cc2ccc(C3CC3)cc2)nc1
[3]
  IP: 11 nM

## C[C@@H](NC(=O)Cc1ccc(C2CC2)cc1)c1ccc(O)cn1
[3]
  IP: 1720 nM

## COc1ccc([C@@H](C)NC(=O)Cc2ccc(C(C)(C)O)cc2)nc1
[3]
  IP: 1130 nM

## COc1ccc([C@@H](C)NC(=O)Cc2ccc(Oc3ccccc3)cc2)nc1
[3]
  IP: 439 nM

## COc1ccc([C@@H](C)NC(=O)Cc2cccc(Cl)c2)nc1
[3]
  IP: 2780 nM

## CC(NC(=O)Cc1ccc(C(C)(C)C)cc1)c1ccccc1Cl (racemic)
[3]
  IP: 332 nM

## CC(C)c1ccc(CC(=O)N[C@H](C)c2ccc(OCc3ccccc3)cn2)cc1
[3]
  IP: 16 nM

## COc1ccc([C@@H](C)NC(=O)Cc2ccc(C(C)C)cc2)nc1
[3]
  IP: 45 nM

## COc1ccc([C@@H](C)NC(=O)Cc2ccccc2)nc1
[3]
  IP: > 10000 nM

## CC(C)c1ccc(CC(=O)N[C@H](C)c2ccc(OCC(F)(F)F)cn2)cc1
[3]
  IP: 5 nM

## CC(C)(C)c1ccc(CC(=O)NC(C)(C)c2ccccc2)cc1
[3]
  IP: 5480 nM

## COc1ccc([C@@H](C)NC(=O)Cc2ccc(Cl)c(Cl)c2)nc1
[3]
  IP: 252 nM

## COc1ccc([C@@H](C)NC(=O)Cc2ccc(C#N)cc2)nc1
[3]
  IP: > 5000 nM

## CC(NC(=O)Cc1ccc(C(C)(C)C)cc1)c1ccncc1 (racemic)
[3]
  IP: > 10000 nM

## C[C@@H](NC(=O)Cc1ccc(C2CC2)cc1)c1ccc(OCC(F)(F)F)cn1
[6]
  clearance: 0.9 mL/min/kg
[7]
  pIC50: 5.43
Mus musculus
  inhibition: Active
[1]
  pIC50: < 5.00
[8]
  half-life: 1.5 h
[9]
  pIC50: 7.05
[2]
  pIC50: < 5.00
[10]
  clearance: 6 mL/min/kg
[11]
  pIC50: < 4.52
Rattus norvegicus [12]
  Activity: Active
[13]
  Vd: 0.7 L/kg
[14]
  bioavailability: 43%
[3]
  IP: 6 nM
[15]
  pIC50: < 4.52
Rattus norvegicus [16]
  Activity: Active
[17]
  Vd: 0.8 L/kg
[18]
  clearance: 17 mL/min/kg
[19]
  half-life: 0.9 h
Rattus norvegicus [20]
  Activity: Active
[21]
  Cmax: 4 µM
[22]
  pIC50: 7.04
[23]
  Vd: 0.9 L/kg
[4]
  pKi: 8.92
[24]
  pIC50: < 4.52
[25]
  bioavailability: 68%
Rattus norvegicus [5]
  inhibition in vivo at 10 mg/kg: 87%
Rattus norvegicus [26]
  Activity: Dose-dependent effect
[27]
  half-life: 11 h
[28]
  pIC50: < 4.52
[29]
  bioavailability: 7%
